Test system: 519858-162-T-J1-PDC complex spheroid growth, % test/control
Experiment: Anticancer human tumor 519858-162-T-J1-PDC patient-derived colon adenocarcinoma cell line growth inhibition [Asc]
Conditions: for IC50: curve of first compound; for viability, T/C: stronger effect = lower value
In short: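 Stromal components (HUVEC and hMSC) are co-assembled with the cancer cells into multicellular spheroids. Drugs are then added singly or paired, at concentrations falling by half-log increments from a clinically achievable maximum, capped at 10 microM without known Cmax.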
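Also: seven day drug exposure begun three days after spheroid seeding.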
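For viability, T/C in this document: 100% = DMSO vehicle wells and lower values mean less viable spheroid.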

## C=C(F)C(=O)N1CCN(c2nc(OCC3CCCN3C)nc3c2CCN(c2cccc4cccc(Cl)c24)C3)CC1CC#N (centres undefined) + Cc1c(S(C)(=O)=O)c(-c2cc(F)cc(N3CCN(c4ccc(NS(=O)(=O)c5ccc(NC(CCN6CCC(C(=O)OCCCP(=O)(O)O)CC6)CSc6ccccc6)c(S(=O)(=O)C(F)(F)F)c5)cc4)CC3)c2)c(-c2ccc(Cl)cc2)n1C(C)C
Second compound 0.0316 µM
  IC50: < 0.0316 µM
Second compound 0.1 µM
  IC50: 9.04 µM
Second compound 0.316 µM
  IC50: 6.37 µM
Second compound 1 µM
  IC50: 5.09 µM
Second compound 3.16 µM
  IC50: 2.51 µM
Second compound 10 µM
  IC50: 2.69 µM
Second compound 0.0316 µM, first compound 0.0316 µM
  viability, T/C: 43.8%
Second compound 0.0316 µM, first compound 0.1 µM
  viability, T/C: 78.2%
Second compound 0.0316 µM, first compound 0.316 µM
  viability, T/C: 94.3%
Second compound 0.0316 µM, first compound 1 µM
  viability, T/C: 98.9%
Second compound 0.0316 µM, first compound 3.16 µM
  viability, T/C: 82.6%
Second compound 0.0316 µM, first compound 10 µM
  viability, T/C: 64.9%
Second compound 0.1 µM, first compound 0.0316 µM
  viability, T/C: 115%
Second compound 0.1 µM, first compound 0.1 µM
  viability, T/C: 111%
Second compound 0.1 µM, first compound 0.316 µM
  viability, T/C: 103%
Second compound 0.1 µM, first compound 1 µM
  viability, T/C: 89%
Second compound 0.1 µM, first compound 3.16 µM
  viability, T/C: 84.8%
Second compound 0.1 µM, first compound 10 µM
  viability, T/C: 45.3%
Second compound 0.316 µM, first compound 0.0316 µM
  viability, T/C: 95.9%
Second compound 0.316 µM, first compound 0.1 µM
  viability, T/C: 102%
Second compound 0.316 µM, first compound 0.316 µM
  viability, T/C: 88%
Second compound 0.316 µM, first compound 1 µM
  viability, T/C: 70.2%
Second compound 0.316 µM, first compound 3.16 µM
  viability, T/C: 61.9%
Second compound 0.316 µM, first compound 10 µM
  viability, T/C: 43.5%
Second compound 1 µM, first compound 0.0316 µM
  viability, T/C: 102%
Second compound 1 µM, first compound 0.1 µM
  viability, T/C: 84.7%
Second compound 1 µM, first compound 0.316 µM
  viability, T/C: 116%
Second compound 1 µM, first compound 1 µM
  viability, T/C: 86.5%
Second compound 1 µM, first compound 3.16 µM
  viability, T/C: 62.8%
Second compound 1 µM, first compound 10 µM
  viability, T/C: 33.2%
Second compound 3.16 µM, first compound 0.0316 µM
  viability, T/C: 86.9%
Second compound 3.16 µM, first compound 0.1 µM
  viability, T/C: 74.1%
Second compound 3.16 µM, first compound 0.316 µM
  viability, T/C: 81.8%
Second compound 3.16 µM, first compound 1 µM
  viability, T/C: 61.1%
Second compound 3.16 µM, first compound 3.16 µM
  viability, T/C: 47.9%
Second compound 3.16 µM, first compound 10 µM
  viability, T/C: 13.5%
Second compound 10 µM, first compound 0.0316 µM
  viability, T/C: 86.7%
Second compound 10 µM, first compound 0.1 µM
  viability, T/C: 66.5%
Second compound 10 µM, first compound 0.316 µM
  viability, T/C: 72.4%
Second compound 10 µM, first compound 1 µM
  viability, T/C: 62.3%
Second compound 10 µM, first compound 3.16 µM
  viability, T/C: 51.4%
Second compound 10 µM, first compound 10 µM
  viability, T/C: 3.12%

## CCN1C(C(=O)NC23CCC(C(=O)O)(CC2)CC3)C(c2cccc(Cl)c2F)C2(C(=O)Nc3cc(Cl)ccc32)C12CCCCC2 (centres undefined) + Cc1c(S(C)(=O)=O)c(-c2cc(F)cc(N3CCN(c4ccc(NS(=O)(=O)c5ccc(NC(CCN6CCC(C(=O)OCCCP(=O)(O)O)CC6)CSc6ccccc6)c(S(=O)(=O)C(F)(F)F)c5)cc4)CC3)c2)c(-c2ccc(Cl)cc2)n1C(C)C
Second compound 0.0316 µM
  IC50: > 3 µM
Second compound 0.1 µM
  IC50: > 3 µM
Second compound 0.316 µM
  IC50: > 3 µM
Second compound 1 µM
  IC50: > 3 µM
Second compound 3.16 µM
  IC50: > 3 µM
Second compound 10 µM
  IC50: 0.748 µM
Second compound 0.0316 µM, first compound 0.00949 µM
  viability, T/C: 74.8%
Second compound 0.0316 µM, first compound 0.03 µM
  viability, T/C: 50%
Second compound 0.0316 µM, first compound 0.0949 µM
  viability, T/C: 76.3%
Second compound 0.0316 µM, first compound 0.3 µM
  viability, T/C: 79.4%
Second compound 0.0316 µM, first compound 0.949 µM
  viability, T/C: 61.8%
Second compound 0.0316 µM, first compound 3 µM
  viability, T/C: 79.5%
Second compound 0.1 µM, first compound 0.00949 µM
  viability, T/C: 83.2%
Second compound 0.1 µM, first compound 0.03 µM
  viability, T/C: 104%
Second compound 0.1 µM, first compound 0.0949 µM
  viability, T/C: 84%
Second compound 0.1 µM, first compound 0.3 µM
  viability, T/C: 87.6%
Second compound 0.1 µM, first compound 0.949 µM
  viability, T/C: 55.4%
Second compound 0.1 µM, first compound 3 µM
  viability, T/C: 71%
Second compound 0.316 µM, first compound 0.00949 µM
  viability, T/C: 80.8%
Second compound 0.316 µM, first compound 0.03 µM
  viability, T/C: 95.1%
Second compound 0.316 µM, first compound 0.0949 µM
  viability, T/C: 84.9%
Second compound 0.316 µM, first compound 0.3 µM
  viability, T/C: 78%
Second compound 0.316 µM, first compound 0.949 µM
  viability, T/C: 65.7%
Second compound 0.316 µM, first compound 3 µM
  viability, T/C: 54.1%
Second compound 1 µM, first compound 0.00949 µM
  viability, T/C: 67.7%
Second compound 1 µM, first compound 0.03 µM
  viability, T/C: 69.4%
Second compound 1 µM, first compound 0.0949 µM
  viability, T/C: 75.5%
Second compound 1 µM, first compound 0.3 µM
  viability, T/C: 56%
Second compound 1 µM, first compound 0.949 µM
  viability, T/C: 93.4%
Second compound 1 µM, first compound 3 µM
  viability, T/C: 49.8%
Second compound 3.16 µM, first compound 0.00949 µM
  viability, T/C: 57.5%
Second compound 3.16 µM, first compound 0.03 µM
  viability, T/C: 56.8%
Second compound 3.16 µM, first compound 0.0949 µM
  viability, T/C: 73.6%
Second compound 3.16 µM, first compound 0.3 µM
  viability, T/C: 46.8%
Second compound 3.16 µM, first compound 0.949 µM
  viability, T/C: 49.3%
Second compound 3.16 µM, first compound 3 µM
  viability, T/C: 60.9%
Second compound 10 µM, first compound 0.00949 µM
  viability, T/C: 55.2%
Second compound 10 µM, first compound 0.03 µM
  viability, T/C: 65.4%
Second compound 10 µM, first compound 0.0949 µM
  viability, T/C: 30.6%
Second compound 10 µM, first compound 0.3 µM
  viability, T/C: 71.8%
Second compound 10 µM, first compound 0.949 µM
  viability, T/C: 43.1%
Second compound 10 µM, first compound 3 µM
  viability, T/C: 36.7%

— PubChem BioAssay AID1963421 (Molecular Pharmacology Branch, DTP, NCI, 2024)
